Structures can show the parent of a compound that is named as a salt. Activity calls are given as the source filed them.
Key:
[1] = target: T1, Ubiquitin-conjugating enzyme E2 N (Homo sapiens, UniProt P61088); type: functional;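 further: Dose-response confirmation in a TR-FRET assay detecting UBC13-driven polyubiquitin chain formation, inhibition measured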
T1 sequence (P61088 whole entry): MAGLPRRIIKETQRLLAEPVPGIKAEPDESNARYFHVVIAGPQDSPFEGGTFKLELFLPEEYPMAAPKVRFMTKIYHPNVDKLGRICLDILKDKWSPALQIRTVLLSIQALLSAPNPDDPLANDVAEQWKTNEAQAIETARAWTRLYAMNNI

[2] = target: T2, Mannose-6-phosphate isomerase (Homo sapiens, UniProt P34949); test: MPI inhibition at elevated mannose 6-phosphate – biochemical, fluorescence intensity, high mannose 6-phosphate, primary screen (AID 1220)
T2 sequence (P34949 whole entry): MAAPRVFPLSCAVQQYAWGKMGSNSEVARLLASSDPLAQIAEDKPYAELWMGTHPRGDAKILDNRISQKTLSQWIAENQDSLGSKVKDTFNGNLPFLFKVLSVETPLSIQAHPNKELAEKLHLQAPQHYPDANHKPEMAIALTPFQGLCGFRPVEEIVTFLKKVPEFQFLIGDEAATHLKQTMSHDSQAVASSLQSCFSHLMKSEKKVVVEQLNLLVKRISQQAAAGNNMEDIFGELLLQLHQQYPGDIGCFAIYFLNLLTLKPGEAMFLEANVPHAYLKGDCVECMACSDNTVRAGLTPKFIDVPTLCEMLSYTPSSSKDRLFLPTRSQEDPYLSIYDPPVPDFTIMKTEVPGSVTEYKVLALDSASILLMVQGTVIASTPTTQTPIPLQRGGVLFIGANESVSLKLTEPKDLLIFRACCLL

[3] = target: Cytochrome P450 2C9 (Homo sapiens, UniProt P11712)
[4] = target: T3, Carboxy-terminal domain RNA polymerase II polypeptide A small phosphatase 1 (Homo sapiens, UniProt Q9GZU7); test: CTDSP1 inhibitors, concentration-response, biochemical, absorbance readout, ultra-high-throughput screen actives (AID 540297); type: functional
T3 sequence (Q9GZU7 whole entry): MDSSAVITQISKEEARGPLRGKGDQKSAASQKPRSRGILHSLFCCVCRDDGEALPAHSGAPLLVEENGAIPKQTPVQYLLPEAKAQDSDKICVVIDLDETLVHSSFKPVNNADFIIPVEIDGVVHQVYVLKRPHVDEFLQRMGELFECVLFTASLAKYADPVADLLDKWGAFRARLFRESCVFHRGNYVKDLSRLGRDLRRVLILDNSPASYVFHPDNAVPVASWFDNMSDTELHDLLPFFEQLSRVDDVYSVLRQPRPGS

[5] = target: T4, Fatty acid synthase (Homo sapiens, UniProt P49327); test: inhibition of human FAS-TE enzyme activity – biochemical, kinetic fluorescence intensity, dose response (AID 624326); type: functional;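 further: rate of fluorescence rise from hydrolysis of a fluorogenic O-methyl fluorescein ester substrate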
[6] = target: T4, Fatty acid synthase; test: inhibition of human FAS-TE enzyme activity – biochemical, endpoint fluorescence intensity, uHTS hits, dose response (AID 624327); type: functional;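 further: fluorescence from hydrolysis of an O-methyl fluorescein acyl ester substrate by the enzyme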
[7] = Luminescence Cell-Based Dose Confirmation HTS to Identify Inhibitors of Platelet Dense Granule Release. [Related pubchem assays: 1663 (Primary HTS), 1678 (Summary of Project)]; type: functional
[8] = target: Luciferin 4-monooxygenase (Photinus pyralis, UniProt P08659); test: inhibition of purified Photinus pyralis luciferase – biochemical, luminescence, dose response (AID 1891)
[9] = test system: H9c2; test: cells; type: functional, cell-based; details: Rattus norvegicus, H9c2, Myocardium;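 further: confirmatory concentration-response retest of ultra-high-throughput screening hits for modulation of myocardial damage; cell death induced by hydrogen peroxide oxidative stress; compound pretreatment for 60 min then peroxide exposure for 2 h; potency is for protecting the cells against peroxide damage rather than for killing them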
[10] = target: T5, Corticotropin-releasing factor receptor 2/Corticotropin-releasing factor-binding protein (Homo sapiens, UniProt P24387+Q13324); test: Dose Response confirmation of uHTS hits for small molecule antagonists of the CRF-binding protein and CRF-R2 receptor complex.; type: functional; details: read-out: IC50_Mean
T5 sequence (Q13324 whole entry): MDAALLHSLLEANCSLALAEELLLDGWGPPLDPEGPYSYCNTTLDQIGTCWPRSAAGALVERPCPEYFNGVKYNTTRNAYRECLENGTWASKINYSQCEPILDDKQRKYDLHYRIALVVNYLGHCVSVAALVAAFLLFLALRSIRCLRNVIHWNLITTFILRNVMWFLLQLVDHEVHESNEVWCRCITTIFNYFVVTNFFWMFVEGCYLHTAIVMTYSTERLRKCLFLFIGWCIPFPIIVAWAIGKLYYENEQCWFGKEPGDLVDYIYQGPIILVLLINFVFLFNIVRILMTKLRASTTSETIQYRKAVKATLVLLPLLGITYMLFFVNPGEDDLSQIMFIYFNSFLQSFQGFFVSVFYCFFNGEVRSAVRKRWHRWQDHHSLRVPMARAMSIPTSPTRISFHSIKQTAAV
T5 sequence (P24387 whole entry): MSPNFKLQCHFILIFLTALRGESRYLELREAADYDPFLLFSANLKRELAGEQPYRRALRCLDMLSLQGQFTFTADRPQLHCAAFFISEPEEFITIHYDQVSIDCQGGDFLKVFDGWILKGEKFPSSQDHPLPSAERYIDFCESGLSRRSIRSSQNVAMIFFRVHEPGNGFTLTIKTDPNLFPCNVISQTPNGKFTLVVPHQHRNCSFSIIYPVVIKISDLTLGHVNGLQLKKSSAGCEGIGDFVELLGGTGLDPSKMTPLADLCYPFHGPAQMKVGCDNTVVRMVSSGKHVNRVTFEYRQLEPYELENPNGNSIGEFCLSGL

[11] = target: T5, Corticotropin-releasing factor receptor 2/Corticotropin-releasing factor-binding protein; test: activators of CRF receptor 2 with binding protein – uHTS hits, confirmation (AID 602473); type: functional; details: read-out: EC50_Mean
[12] = target: T6, Zinc finger protein mex-5 (Caenorhabditis elegans, UniProt Q9XUB2); test: potency of MEX-5 RNA-binding blockers – biochemical, C. elegans, fluorescence polarization, dose response (AID 1960)
T6 sequence (Q9XUB2 whole entry): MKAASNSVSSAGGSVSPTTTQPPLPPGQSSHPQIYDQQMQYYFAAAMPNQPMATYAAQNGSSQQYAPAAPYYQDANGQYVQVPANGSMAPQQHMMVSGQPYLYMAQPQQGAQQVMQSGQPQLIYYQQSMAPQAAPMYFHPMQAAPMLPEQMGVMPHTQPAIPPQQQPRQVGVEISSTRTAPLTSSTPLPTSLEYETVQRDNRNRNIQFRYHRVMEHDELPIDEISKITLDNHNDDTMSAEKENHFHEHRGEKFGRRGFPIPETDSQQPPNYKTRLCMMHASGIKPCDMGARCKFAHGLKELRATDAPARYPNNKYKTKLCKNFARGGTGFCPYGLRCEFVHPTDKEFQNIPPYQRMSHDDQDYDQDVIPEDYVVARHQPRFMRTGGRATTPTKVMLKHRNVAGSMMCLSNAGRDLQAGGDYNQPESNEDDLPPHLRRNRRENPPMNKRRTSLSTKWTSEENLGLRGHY

[13] = target: T7, RNA-binding protein pos-1 (Caenorhabditis elegans, UniProt G5EF15); test: disruptors of C. elegans POS-1 RNA interaction – biochemical, fluorescence polarization, dose response (AID 1964);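 further: purified POS-1 fused to maltose binding protein made in E. coli; potency of compounds blocking POS-1 binding to fluorescent RNA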
T7 sequence (G5EF15 whole entry): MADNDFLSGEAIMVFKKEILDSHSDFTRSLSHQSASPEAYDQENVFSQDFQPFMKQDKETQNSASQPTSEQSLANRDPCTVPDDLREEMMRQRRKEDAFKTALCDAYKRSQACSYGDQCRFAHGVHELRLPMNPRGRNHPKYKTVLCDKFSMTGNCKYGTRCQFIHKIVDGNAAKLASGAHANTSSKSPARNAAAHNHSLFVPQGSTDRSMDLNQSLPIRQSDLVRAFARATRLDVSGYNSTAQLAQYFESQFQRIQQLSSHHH

[14] = target: T8, Caspase-6 (Homo sapiens, UniProt P55212); test: inhibition of CASP6 peptide cleavage – biochemical, VEID-R110 fluorescence, cherry-pick, dose response (AID 720632)
T8 sequence (P55212 whole entry): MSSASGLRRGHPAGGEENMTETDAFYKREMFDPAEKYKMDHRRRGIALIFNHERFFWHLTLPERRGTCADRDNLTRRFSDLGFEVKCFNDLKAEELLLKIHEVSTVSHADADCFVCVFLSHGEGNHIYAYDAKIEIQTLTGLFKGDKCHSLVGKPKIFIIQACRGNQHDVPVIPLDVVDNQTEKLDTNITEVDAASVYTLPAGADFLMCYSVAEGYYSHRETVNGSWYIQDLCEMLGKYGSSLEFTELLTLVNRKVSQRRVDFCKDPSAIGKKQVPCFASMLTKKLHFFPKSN

[15] = cells; type: functional, cell-based
[16] = cells; type: functional, cell-based; remark: listed apart in the source
[17] = P. falciparum Dd2 growth inhibitors, dose response, SYBR Green, cherry-picked samples (AID 1159567); type: functional, cell-based
[18] = target: T9, DNA repair protein RAD52 homolog (Homo sapiens, UniProt P43351); type: functional, biochemical
T9 sequence (P43351 whole entry): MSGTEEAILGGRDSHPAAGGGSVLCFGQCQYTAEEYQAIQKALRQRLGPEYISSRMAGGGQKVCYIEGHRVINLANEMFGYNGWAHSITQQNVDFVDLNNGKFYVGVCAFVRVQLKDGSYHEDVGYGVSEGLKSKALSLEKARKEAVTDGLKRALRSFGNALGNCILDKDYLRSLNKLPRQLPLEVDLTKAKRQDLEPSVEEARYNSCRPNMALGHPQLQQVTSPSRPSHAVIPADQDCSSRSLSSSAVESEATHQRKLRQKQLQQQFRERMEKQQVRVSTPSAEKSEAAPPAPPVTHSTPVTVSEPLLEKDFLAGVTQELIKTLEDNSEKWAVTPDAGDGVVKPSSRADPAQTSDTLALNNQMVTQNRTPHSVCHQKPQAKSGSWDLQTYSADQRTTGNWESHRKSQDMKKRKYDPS

Luciferin 4-monooxygenase, sequence (P08659 whole entry): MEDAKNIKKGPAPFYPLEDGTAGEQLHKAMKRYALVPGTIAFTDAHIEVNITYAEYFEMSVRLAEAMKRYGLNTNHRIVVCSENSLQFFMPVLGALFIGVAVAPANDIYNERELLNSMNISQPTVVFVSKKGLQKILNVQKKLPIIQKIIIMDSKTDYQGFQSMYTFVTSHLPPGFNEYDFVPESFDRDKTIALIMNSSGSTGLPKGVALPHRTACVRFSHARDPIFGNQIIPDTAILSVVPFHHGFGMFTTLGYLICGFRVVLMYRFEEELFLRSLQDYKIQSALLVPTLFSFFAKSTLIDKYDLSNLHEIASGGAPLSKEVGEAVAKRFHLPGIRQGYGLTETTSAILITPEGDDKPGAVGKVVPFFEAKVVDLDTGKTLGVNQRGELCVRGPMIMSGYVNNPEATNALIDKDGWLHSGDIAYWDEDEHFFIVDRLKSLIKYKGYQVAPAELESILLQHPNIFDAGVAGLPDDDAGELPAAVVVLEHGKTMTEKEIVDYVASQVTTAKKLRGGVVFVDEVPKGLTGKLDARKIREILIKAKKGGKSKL
T4 sequence (P49327 whole entry): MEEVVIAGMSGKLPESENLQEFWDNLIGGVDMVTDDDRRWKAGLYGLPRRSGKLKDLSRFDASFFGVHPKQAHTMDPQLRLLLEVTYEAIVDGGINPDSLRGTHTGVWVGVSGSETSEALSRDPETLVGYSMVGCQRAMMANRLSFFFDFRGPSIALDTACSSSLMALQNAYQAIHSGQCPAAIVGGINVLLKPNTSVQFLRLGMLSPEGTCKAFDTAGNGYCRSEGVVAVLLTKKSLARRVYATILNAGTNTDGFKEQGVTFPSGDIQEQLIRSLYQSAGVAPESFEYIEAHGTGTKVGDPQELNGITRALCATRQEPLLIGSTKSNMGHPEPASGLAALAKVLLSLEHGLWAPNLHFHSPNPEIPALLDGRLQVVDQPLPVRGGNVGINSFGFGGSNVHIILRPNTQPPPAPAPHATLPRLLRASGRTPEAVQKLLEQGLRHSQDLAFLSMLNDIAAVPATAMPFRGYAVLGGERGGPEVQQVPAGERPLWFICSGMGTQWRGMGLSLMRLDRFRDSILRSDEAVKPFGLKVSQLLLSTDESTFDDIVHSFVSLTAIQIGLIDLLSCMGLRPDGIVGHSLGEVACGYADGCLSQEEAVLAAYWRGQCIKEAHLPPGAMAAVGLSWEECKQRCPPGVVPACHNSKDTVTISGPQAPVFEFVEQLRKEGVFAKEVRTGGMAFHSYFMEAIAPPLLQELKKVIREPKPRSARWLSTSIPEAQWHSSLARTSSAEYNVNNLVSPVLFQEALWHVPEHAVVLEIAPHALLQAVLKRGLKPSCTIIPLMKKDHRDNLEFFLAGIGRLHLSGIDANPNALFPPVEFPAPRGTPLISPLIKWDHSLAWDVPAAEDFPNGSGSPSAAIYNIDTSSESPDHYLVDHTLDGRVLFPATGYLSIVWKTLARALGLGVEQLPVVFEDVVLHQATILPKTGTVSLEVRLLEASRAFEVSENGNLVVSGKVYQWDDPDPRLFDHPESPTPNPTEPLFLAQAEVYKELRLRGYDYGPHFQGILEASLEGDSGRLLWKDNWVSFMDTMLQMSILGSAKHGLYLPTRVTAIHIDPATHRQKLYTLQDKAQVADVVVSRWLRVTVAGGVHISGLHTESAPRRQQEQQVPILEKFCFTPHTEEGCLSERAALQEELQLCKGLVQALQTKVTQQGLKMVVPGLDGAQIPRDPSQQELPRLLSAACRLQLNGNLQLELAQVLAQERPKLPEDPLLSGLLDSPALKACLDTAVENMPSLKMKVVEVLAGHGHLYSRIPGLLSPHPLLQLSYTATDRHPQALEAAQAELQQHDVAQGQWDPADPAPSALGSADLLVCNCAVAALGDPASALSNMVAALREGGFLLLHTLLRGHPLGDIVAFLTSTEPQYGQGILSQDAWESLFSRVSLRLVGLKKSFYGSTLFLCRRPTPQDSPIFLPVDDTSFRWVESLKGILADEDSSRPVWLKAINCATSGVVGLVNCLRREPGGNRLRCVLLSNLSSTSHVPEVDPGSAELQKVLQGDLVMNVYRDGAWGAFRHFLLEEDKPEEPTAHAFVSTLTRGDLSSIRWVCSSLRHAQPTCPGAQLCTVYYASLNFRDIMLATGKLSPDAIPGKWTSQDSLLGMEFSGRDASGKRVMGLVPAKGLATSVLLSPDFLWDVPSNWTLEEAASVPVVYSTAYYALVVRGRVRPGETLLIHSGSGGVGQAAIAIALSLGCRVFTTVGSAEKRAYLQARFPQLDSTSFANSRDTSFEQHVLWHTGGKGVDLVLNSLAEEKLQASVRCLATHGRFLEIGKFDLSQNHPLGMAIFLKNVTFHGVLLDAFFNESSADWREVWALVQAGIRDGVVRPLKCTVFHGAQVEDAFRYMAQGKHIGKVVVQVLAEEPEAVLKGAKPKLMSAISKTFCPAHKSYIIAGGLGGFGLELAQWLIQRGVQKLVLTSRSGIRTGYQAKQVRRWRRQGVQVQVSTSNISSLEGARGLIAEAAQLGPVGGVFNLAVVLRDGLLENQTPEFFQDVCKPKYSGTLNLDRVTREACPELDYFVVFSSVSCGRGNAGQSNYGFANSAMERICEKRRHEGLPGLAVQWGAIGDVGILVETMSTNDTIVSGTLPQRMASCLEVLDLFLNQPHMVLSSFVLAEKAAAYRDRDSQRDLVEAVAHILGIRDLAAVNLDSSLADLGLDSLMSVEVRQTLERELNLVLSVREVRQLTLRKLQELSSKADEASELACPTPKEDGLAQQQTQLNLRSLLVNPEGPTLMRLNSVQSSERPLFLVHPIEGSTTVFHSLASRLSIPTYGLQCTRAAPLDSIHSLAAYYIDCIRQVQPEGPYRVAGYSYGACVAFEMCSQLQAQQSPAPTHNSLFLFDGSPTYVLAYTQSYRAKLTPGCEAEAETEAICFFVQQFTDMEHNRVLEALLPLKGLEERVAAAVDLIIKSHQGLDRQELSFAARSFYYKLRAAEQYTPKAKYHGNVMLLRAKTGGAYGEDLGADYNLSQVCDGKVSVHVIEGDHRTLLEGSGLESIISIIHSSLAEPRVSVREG
Cytochrome P450 2C9, sequence (P11712 whole entry, the tested form may be a part): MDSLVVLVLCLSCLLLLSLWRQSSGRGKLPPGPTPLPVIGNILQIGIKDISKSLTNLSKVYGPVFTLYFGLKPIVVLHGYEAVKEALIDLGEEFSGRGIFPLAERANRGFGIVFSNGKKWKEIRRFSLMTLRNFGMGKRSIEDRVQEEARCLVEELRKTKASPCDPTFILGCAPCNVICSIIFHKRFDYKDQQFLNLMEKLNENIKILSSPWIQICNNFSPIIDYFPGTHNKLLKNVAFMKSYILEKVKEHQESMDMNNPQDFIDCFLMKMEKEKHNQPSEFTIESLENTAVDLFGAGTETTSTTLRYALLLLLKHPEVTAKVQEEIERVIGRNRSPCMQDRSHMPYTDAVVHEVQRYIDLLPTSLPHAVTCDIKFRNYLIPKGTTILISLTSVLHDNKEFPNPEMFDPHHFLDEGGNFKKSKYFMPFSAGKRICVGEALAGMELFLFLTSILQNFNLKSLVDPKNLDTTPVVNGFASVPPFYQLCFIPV

## CC(C)n1c(NCc2cc(Cl)ccc2O)nc2ccccc21
[1]
  IC50: > 20 µM (inactive)

## Oc1ccc(/C=N/N(Cc2ccccc2)c2ccccc2)c(O)c1O
[2]
  IC50: > 50 µM (not active)

## COc1ccc(-c2cc3ccccc3oc2=O)cc1NC(=S)NC(=O)c1ccc2c(c1)OCCO2
[1]
  IC50: > 20 µM (inactive)

## C[N+]1(CCOc2ccc([N+](=O)[O-])cc2)CCOCC1.[I-]
[3]
  AC50: inconclusive
[4]
  IC50: 4.86 µM (active)

## O=C(Nc1cccc([N+](=O)[O-])c1)N1CCc2ccccc2C1
[5]
  IC50: 6.26 µM (active)
[6]
  IC50: 8.71 µM (active)

## Cc1nc2cc(NC(=O)Nc3ccccc3Cl)ccc2n1C
[7]
  EC50: 5.86 µM (active)
[8]
  EC50: 5.05 µM (active)

## CN1CCN(/C=C2\SC(=S)NC2=O)CC1
[7]
  EC50: > 112 µM (not active)
[8]
  EC50: > 112 µM (not active)

## O=C/C(=C\Nc1ccccn1)c1nc2cc(Cl)ccc2o1
[9]
  IC50: > 79 µM (inactive)
[10]
  IC50: > 47.1 µM (inactive)
[11]
  EC50: > 53 µM (inactive)
[12]
  EC50: 36.4 µM (active)
[13]
  EC50: 67.7 µM (active)

## Cc1c(C(=O)O)c(C(=O)O)nc2ccc(N3CCOCC3)cc12
[2]
  IC50: > 50 µM (not active)

## COCCN1C(=O)c2oc3ccccc3c(=O)c2C1c1ccc(OC)c(OC)c1 (centres undefined)
[4]
  IC50: 5.26 µM (active)

## CCOC(=O)CCCSc1nnc(CCCCCN2C(=O)c3cccc4cccc(c34)C2=O)o1
[1]
  IC50: > 20 µM (inactive)

## O=C(COC(=O)c1cccnc1Cl)NCc1ccco1
[4]
  IC50: 12.4 µM (active)

## Cc1ccc(S(=O)(=O)NC2=NC(=O)/C(=C/c3cc([N+](=O)[O-])ccc3O)S2)cc1
[14]
  AC50: 10.7 µM (active)
[15]
  EC50: 53.1 µM (active)
[16]
  EC50: > 350 µM (not active)

## CCN(C(=S)Nc1cccnc1)c1cccc2ccccc12
[2]
  IC50: > 50 µM (not active)

## O=C1CC(c2cccc([N+](=O)[O-])c2)c2cc3c(cc2N1)CCC3 (centres undefined)
[5]
  IC50: 15.9 µM (active)
[6]
  IC50: 10.9 µM (active)

## O=C(Cc1ccc(-n2c(=O)c3ccccc3n(Cc3ccc(F)cc3)c2=O)cc1)NCC1CCCO1 (centres undefined)
[7]
  EC50: > 112 µM (not active)
[8]
  EC50: > 112 µM (not active)

## Fc1ccccc1Nc1nc2c(s1)CCc1ccccc1-2
[2]
  IC50: > 50 µM (not active)

## CC1(C(=O)NS(=O)(=O)c2ccc(C#N)cc2)CCN1C(=O)Cc1ccc(Cl)cc1Cl (centres undefined)
[5]
  IC50: 5.77 µM (active)
[6]
  IC50: 10.1 µM (active)

## Cc1cc(C)cc(NC(=O)c2cc(S(=O)(=O)N3CCCC3)cn2C)c1
[7]
  EC50: > 112 µM (not active)
[8]
  EC50: > 112 µM (not active)

## O=C(C[C@H]1C[C@@H]2c3cc(NC(=O)Nc4ccccc4)ccc3O[C@@H]2[C@H](CO)O1)NCc1ccccc1
[17]
  AC50: 12.4 µM (active)

## CCC1(c2ccccc2)NC(=O)N(CC(=O)Nc2cc(Cl)ccc2N2CCN(C)CC2)C1=O (centres undefined)
[1]
  IC50: > 20 µM (inactive)

## COC(=O)c1cc(C(=O)OCC(=O)NC2CCCC2)cc([N+](=O)[O-])c1
[5]
  IC50: 9.42 µM (active)
[6]
  IC50: 8.82 µM (active)

## CSc1ccc2c(c1)C(N1CCN(C)CC1)Cc1ccccc1S2 (centres undefined) [METHIOTHEPIN MESYLATE]
[1]
  IC50: > 20 µM (inactive)
[18]
  AC50: 18.7 µM (active)

## CCC(=O)/N=c1\sc2cc(F)cc(F)c2n1C
[7]
  EC50: > 112 µM (not active)
[8]
  EC50: > 112 µM (not active)

## Cc1cc(/C=C2\C(=O)NC(=O)N(c3ccc(Cl)cc3)C2=O)c(C)n1-c1cccc(C(=O)O)c1
[12]
  EC50: 65.9 µM (active)
[4]
  IC50: 9.6 µM (active)
[13]
  EC50: > 300 µM (not active)

Reference: ChEMBL document CHEMBL1201862, “PubChem BioAssay data set” (2004)
